Counter-ions that a name gives are not always drawn.
Tests used:
[1] = system: KJ1-26+ Treg and Teff cells in DLN, NLNs and spleen; assay: Inhibition of T cell egress with FTY720 in the model; format: in vivo, BALB/c Foxp3-eGFP mice; conditions: FTY720 with OVA-in-8203
Description: Inhibition of T Cell Egress with FTY720. FTY720 was dissolved in DMSO at 20 μg/μl. On day 5 in the model, 1 μl of FTY720 was mixed with one dose of OVA-in-8203, and the mixture was injected into the primed footpad. As a control, 1 μl of DMSO was used in place of FTY720, and the mixture was injected into a control group. On days 6 and 7, the mice were given additional injections (i.p.) of FTY720 (or DMSO) at 1 μl (diluted in 100 μl PBS)/mouse/day. On day 8, KJ1-26^+ Treg and Teff cells in the DLN, NLNs, and the spleen were counted, as described earlier.

[2] = system: antigen-reactive Treg and Teff cells; assay: Ki67 assay of antigen-reactive T cells in AFK mice; format: in vivo, AFK mice (C57BL/6 Apoe-/- Foxp3-eGFP Ki67-tagRFP); conditions: FTY720 after 8206
Description: Preparation and Injection of Composition 8206. Composition 8206 was prepared in the same steps as described for 8203 (Example 1), except that R848 was used in place of MPLA. It was injected subcutaneously at the back flank in 50 μl of PBS. PBS containing DMSO (as “PBS”), which was the initial solvent for rapamycin and R848, was used as a control.
Ki67-TagRFP-Based In Vitro Proliferation Assay for T Cells (“Ki67 Assay”). Total cells were isolated from lymphoid organs, washed twice in RPMI 1640/10% FCS, and counted by flow cytometry as described in Example 1. A portion of the isolated cells was cultured at 1×10^6 cells/well in a 96-well U-bottom plate. The wells were filled with 200 μl of RPMI 1640/10% FCS supplemented with 2-mercaptoethanol (50 μM), murine IL-2 (20 ng/ml), MPLA (100 ng/ml), sodium pyruvate (1 mM), and a peptide antigen (3 μg/ml) or DMSO (as a solvent control for the antigen). After 5 days, the cells were analyzed by flow cytometry with a BD FACS Melody. Proliferating Treg and Teff cells were identified as CD4+Foxp-eGFP+Ki67-TagRFP+CD62L1o and CD4+Foxp-eGFP Ki 67-TagRFP+CD62L10 populations, respectively; the cells were counted by the method of Schlenke ((1998) Cytometry 33:310-317). […] The difference was expressed as count/organ by multiplying the total number of cells in an organ divided by the portion used in the assay. […]

[3] = system: monocyte-derived macrophages in DLN, NLN and spleen; assay: Systemic MMφ influx into draining and non-draining lymph nodes (R848, 8206); format: in vivo, C56BL/6 mice
Description: FIGS. 9A-9B show the effect of R848 on draining lymph node (DLN) versus non-draining lymph node (NLN). (FIG. 9A) C56BL/6 mice (10-week-old) were injected at the right-footpad with 20 μl of PBS containing DMSO (control), 3 μg of MPLA, or an equal molar amount (0.6 μg) of R848. At 24 hours, monocyte-derived macrophages (MM) in both the DLN and the NLN were counted by flow cytometry. Data are mean±SD of four experiments (on a log scale). * p≤0.001 (one-way ANOVA). (FIG. 9B) Dose-response analysis of R848. C56BL/6 mice (10-week-old) were injected subcutaneously at the back flank with 50 μl of PBS containing 8 μg of dexamethasone, 20 μg of rapamycin, and an indicated dose of R848. At 24 h, MMφ in popliteal lymph nodes were counted. Shown is a nonlinearly fitted substrate inhibition curve for mean±SD of 4-8 LNs. * p≤0.01 (one-way ANOVA).
C56BL/6 mice (10-week-old) were injected subcutaneously at the back flank with 8206 or PBS. At 24 hours, MMO in popliteal (PLN), axillary (ALN), mesenteric (MLN), and caudal mediastinal (CLN) lymph nodes and the spleen (SP) were counted. Data are mean±SD of four experiments (on a log scale). *p≤0.01 (t-test).
Preparation and Injection of Composition 8206. Composition 8206 was prepared in the same steps as described for 8203 (Example 1), except that R848 was used in place of MPLA. It was injected subcutaneously at the back flank in 50 μl of PBS. […]

[4] = system: MMφs, DCs, Treg cells and Teff cells in draining lymph node; assay: Adjuvant-induced potentiation in lymphoid organs after footpad injection; format: in vivo, mouse; conditions: one day
Description: Footpad Injection. “A footpad” means the footpad of the right hind leg. Adjuvant components, antigens, or their combinations were injected subcutaneously (s.c.) between the 3rd and 4th toes in a volume of ˜20 μl in phosphate-buffered saline (PBS) with a BD insulin syringe.
Dose-Response Analysis. For dose-response analysis of MPLA, the reagent was serially diluted in DMSO; 5 μl of the diluted reagent were mixed with 100 μl of PBS and the resulting mixture was injected at 20 μl/footpad. For dose 0, 5 μl of DMSO were mixed with 100 μl of PBS and the resulting mixture was injected. Dose-response analysis of rapamycin was performed similarly, except that PBS containing 3 μg of MPLA was used in place of PBS.
Analysis of Adjuvant-Induced Potentiation in Lymphoid Organs. […] Cells were analyzed by flow cytometry. […] The total counts of MMos (CD11^loCD40^lo) (Zheng et al. (2013) Eur. J. Immunol. 43:219-227) and DCs (all the CD11+CD40^+ cells after excluding the CD11^loCD40^lo cells) (Zheng et al. (2013) Eur. J. Immunol. 43:219-227) in the cell suspension were determined by the method of Schlenke et al. ((1998) Cytometry 33:310-317). The MMφ count in percent was calculated as % of the total MMO and DC counts combined. […]

[5] = system: KJ1-26+ Treg and Teff cells; assay: Mouse model testing tolerogenic adjuvants (the model): KJ1-26+ T cell counts and proliferation; format: in vivo, BALB/c Foxp3-eGFP mice; conditions: OVA with indicated components once every 3 days
Description: Mouse Model Testing Tolerogenic Adjuvants (“the Model”). The model was generated as follows: On day 0, whole blood was collected with heparin as the anticoagulant from a DO11.10 Foxp3-eGFP mouse. The blood was diluted 1:50 in PBS and transfused intravenously (i.v.) into sex-matched syngeneic BALB/c Foxp3-eGFP mice at ˜100 μl (containing ˜4,000 CD4+KJ1-26^+ cells) per mouse. On day 1, the recipients were injected at a footpad with 100 μg of OVA in 20 μl of PBS (see “Footpad Injection”) and let rest. On day 5, they were used as the model.
Determination of CD4^+ T cell Counts in the Model. A cell suspension was prepared from the DLN, NLNs, or the spleen as described herein. For counting CD4^+ T cells in the DLN, a portion of the DLN cell suspension was stained with PE/Cy7 anti-CD3 and APC anti-CD4 and analyzed by flow cytometry. The total CD4^+ T cell count (CD3+CD4+) in the suspension was determined by the method of Schlenke et al. ((1998) Cytometry 33:310-317). […] Cells were analyzed by flow cytometry. The total counts in the suspension for KJ1-26^+ Treg, KJ1-26^+ Teff, host Treg, and host Teff cells were calculated as portions of the total CD4^+ T cell count. The count in percent for Treg cells (“% Treg”) was calculated as % of the total Treg and Teff counts combined. […]

Molecule: CCCCCCCCc1ccc(CCC(N)(CO)CO)cc1 [FTY720, fingolimod HCl]
- gain of KJ1-26+ Treg counts in NLNs and spleen [1]: could be blocked
- accumulation of P210m-reactive Treg cells in spleen with egress blocker [2]: could be inhibited

Molecule: CCOCc1nc2c(N)nc3ccccc3c2n1CC(C)(C)O [R848, resiquimod]
- optimal dose for systemic MMφ effect ([3]; combined with 8 μg dexamethasone and 20 μg rapamycin, s.c. back flank): about 6 μg

Molecule: monophosphoryl lipid A [MPLA]
- attraction of MMφs to non-draining lymph nodes ([3]; footpad, 24 hours): could not
- influx of MMφs, Teff cells, DCs and Treg cells to the DLN ([4]; injected alone into a footpad, BALB/c mouse): induced an influx of MMφs and Teff cells preferentially over that of DCs and Treg cells
- abundance and absolute number of MMφs in the DLN ([4]; single footpad injection, BALB/c): attract MMS
- role of component in prolonging Treg cell expansion / shortening Teff cell expansion in DLN [5]: not required here for either effect
